Reference: ChEMBL document CHEMBL5104195, “Discovery of Orally Bioavailable SOS1 Inhibitors for Suppressing KRAS-Driven Carcinoma” (J Med Chem, 2022)

What was measured:
[1] = rat, in vivo, po, 10 mg/kg, 24 h
in vivo [2] = conditions: ICR, mouse, po, 50 mg/kg
[3] = MRT in ICR mouse at 50 mg/kg, po measured up to 24 hrs by LC-MS/MS analysis; conditions: in vivo
[4] = Cardiotoxicity in Patient-specific iPSC-derived cardiomyocytes assessed as decrease in spontaneous beating of myocardial cell at 3 uM by patch clamp assay; conditions: human, cardiac muscle cell
in vitro [5] = conditions: rhesus monkey, liver microsomes
[6] = rat, in vivo, po, 10 mg/kg, 24 h; remark: listed apart in the source
in vivo [7] = conditions: ICR, mouse, po, 50 mg/kg; remark: listed apart in the source
in vitro [8] = conditions: human, liver microsomes
[9] = rat, in vivo, po, 10 mg/kg, 24 h; remark: listed apart in the source
[10] = Half life in Sprague-Dawley rat at 2 mg/kg, iv measured upto 24 hrs by LC/MS/MS analysis; conditions: in vivo
[11] = Plasma protein binding in rat at 2 uM preincubated for 1 hr by balanced dialysis based LC-MS/MS analysis
[12] = Apparent permeability across apical to basolateral side in dog MDCKII-MDR1 cells; conditions: MDCK-MDR1
Cytochrome P450 2D6 [13] = molecular target: T1, Cytochrome P450 2D6 (Homo sapiens, UniProt P10635); assay: Inhibition of CYP2D6 in human liver microsomes at 10 uM using dextromethorphan as substrate preincubated for 10 mins followed by NADPH addition by LC/MS analysis
T1 sequence (P10635 whole entry): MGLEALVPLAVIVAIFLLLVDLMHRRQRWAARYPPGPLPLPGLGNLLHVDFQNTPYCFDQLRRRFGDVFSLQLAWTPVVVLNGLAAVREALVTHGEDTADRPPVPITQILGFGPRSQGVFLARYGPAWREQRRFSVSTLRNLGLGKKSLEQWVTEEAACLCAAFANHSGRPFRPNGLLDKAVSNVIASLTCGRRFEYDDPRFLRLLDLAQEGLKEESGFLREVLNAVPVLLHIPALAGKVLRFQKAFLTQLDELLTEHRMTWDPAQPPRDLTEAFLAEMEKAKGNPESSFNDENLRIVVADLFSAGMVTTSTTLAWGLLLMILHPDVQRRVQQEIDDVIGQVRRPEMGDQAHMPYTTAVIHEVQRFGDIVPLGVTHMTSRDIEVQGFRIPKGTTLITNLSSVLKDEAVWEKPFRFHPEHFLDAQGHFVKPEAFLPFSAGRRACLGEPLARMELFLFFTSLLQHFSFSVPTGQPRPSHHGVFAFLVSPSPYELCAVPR

[14] = Plasma protein binding in monkey at 2 uM preincubated for 1 hr by balanced dialysis based LC-MS/MS analysis; conditions: rhesus monkey
Cytochrome P450 2D6 [15] = molecular target: T1, Cytochrome P450 2D6; assay: Time-dependent inhibition of CYP2D6 (unknown origin) at 2 ul pre-incubated for 30 mins in presence or absence of NADPH incubated for 10 mins by LC/MS analysis
[16] = Cardiotoxicity in Patient-specific iPSC-derived cardiomyocytes assessed as decrease in maximum depolarization rate of action potential at 0.03 to 3 uM by patch clamp assay; conditions: human, cardiac muscle cell
Cytochrome P450 2C8 [17] = molecular target: T2, Cytochrome P450 2C8 (Homo sapiens, UniProt P10632); assay: Inhibition of CYP2C8 in human liver microsomes at 10 uM using amodiaquine as substrate preincubated for 10 mins followed by NADPH addition by LC/MS analysis
T2 sequence (P10632 whole entry): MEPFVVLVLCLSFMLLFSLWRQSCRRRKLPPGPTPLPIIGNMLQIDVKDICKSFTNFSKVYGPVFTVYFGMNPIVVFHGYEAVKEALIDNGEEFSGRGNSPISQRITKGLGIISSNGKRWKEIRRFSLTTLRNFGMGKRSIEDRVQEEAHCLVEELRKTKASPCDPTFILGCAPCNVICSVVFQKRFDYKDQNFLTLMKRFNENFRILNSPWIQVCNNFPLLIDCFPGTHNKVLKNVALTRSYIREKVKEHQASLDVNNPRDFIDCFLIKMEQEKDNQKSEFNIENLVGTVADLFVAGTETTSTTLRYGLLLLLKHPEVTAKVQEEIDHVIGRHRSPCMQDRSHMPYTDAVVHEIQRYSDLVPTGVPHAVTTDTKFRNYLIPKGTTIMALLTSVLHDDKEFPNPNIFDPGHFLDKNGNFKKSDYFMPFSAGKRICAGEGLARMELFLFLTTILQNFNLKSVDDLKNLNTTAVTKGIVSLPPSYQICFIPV

Cytochrome P450 3A4 [18] = molecular target: T3, Cytochrome P450 3A4 (Homo sapiens, UniProt P08684); assay: Inhibition of CYP3A4 in human liver microsomes at 10 uM using midazolam as substrate preincubated for 10 mins followed by NADPH addition by LC/MS analysis
T3 sequence (P08684 whole entry): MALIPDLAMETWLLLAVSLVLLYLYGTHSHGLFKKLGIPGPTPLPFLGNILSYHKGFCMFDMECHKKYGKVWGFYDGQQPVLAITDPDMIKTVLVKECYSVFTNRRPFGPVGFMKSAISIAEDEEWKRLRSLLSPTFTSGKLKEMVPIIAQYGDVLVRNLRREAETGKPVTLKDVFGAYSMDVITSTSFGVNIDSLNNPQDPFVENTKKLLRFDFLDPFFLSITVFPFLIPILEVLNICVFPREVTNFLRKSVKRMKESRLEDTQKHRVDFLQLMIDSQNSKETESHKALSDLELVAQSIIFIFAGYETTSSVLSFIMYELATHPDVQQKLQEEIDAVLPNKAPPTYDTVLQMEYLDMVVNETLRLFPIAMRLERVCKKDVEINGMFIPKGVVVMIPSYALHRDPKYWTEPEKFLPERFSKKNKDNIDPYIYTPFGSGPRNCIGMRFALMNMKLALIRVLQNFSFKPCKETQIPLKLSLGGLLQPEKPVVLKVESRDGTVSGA

Cytochrome P450 2C9 [19] = molecular target: T4, Cytochrome P450 2C9 (Homo sapiens, UniProt P11712); assay: Inhibition of CYP2C9 in human liver microsomes at 10 uM using diclofenac as substrate preincubated for 10 mins followed by NADPH addition by LC/MS analysis
T4 sequence (P11712 whole entry): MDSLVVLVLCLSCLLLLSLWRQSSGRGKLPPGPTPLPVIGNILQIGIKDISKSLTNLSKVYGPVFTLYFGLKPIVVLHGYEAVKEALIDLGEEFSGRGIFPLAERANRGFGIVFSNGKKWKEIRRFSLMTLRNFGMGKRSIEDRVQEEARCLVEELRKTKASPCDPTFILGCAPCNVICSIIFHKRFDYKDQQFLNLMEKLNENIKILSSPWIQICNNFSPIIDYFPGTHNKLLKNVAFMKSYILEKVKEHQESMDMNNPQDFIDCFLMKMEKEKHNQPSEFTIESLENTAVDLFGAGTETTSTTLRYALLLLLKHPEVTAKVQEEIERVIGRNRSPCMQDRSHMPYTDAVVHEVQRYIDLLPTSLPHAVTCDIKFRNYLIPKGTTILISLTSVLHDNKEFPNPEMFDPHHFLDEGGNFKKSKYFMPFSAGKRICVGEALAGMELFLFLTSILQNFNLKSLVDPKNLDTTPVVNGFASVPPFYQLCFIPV

in vitro [20] = conditions: dog, liver microsomes
[21] = Elimination rate constant in ICR mouse at 50 mg/kg, po measured up to 24 hrs by LC-MS/MS analysis; conditions: in vivo
[22] = dog, in vivo, po, 20 mg/kg, 24 h
[23] = dog, in vivo, po, 20 mg/kg, 24 h; remark: listed apart in the source
[24] = dog, in vivo, po, 20 mg/kg, 24 h; remark: listed apart in the source
[25] = rat, in vivo, iv, 2 mg/kg, 24 h
[26] = Half life in Sprague-Dawley rat at 10 mg/kg, po measured upto 24 hrs by LC/MS/MS analysis; conditions: in vivo
in vitro [27] = conditions: mouse, liver microsomes
[28] = Half life in ICR mouse at 50 mg/kg, po measured up to 24 hrs by LC-MS/MS analysis; conditions: in vivo
in vitro [29] = conditions: rat, liver microsomes
[30] = Cardiotoxicity in Patient-specific iPSC-derived cardiomyocytes assessed as decrease in spontaneous beating of myocardial cell at 10 uM by patch clamp assay; conditions: human, cardiac muscle cell
[31] = Plasma protein binding in dog at 2 uM preincubated for 1 hr by balanced dialysis based LC-MS/MS analysis
Cytochrome P450 3A4 [32] = molecular target: T3, Cytochrome P450 3A4; assay: Time-dependent inhibition of CYP3A4 (unknown origin) at 2 ul pre-incubated for 30 mins in presence or absence of NADPH incubated for 10 mins by LC/MS analysis
in vivo [33] = conditions: ICR, mouse, po, 50 mg/kg; remark: listed apart in the source
[34] = Toxicity in BALB/c nude mouse xenografted with human MIA PaCa-21 cells expressing KRAS G12C mutant assessed as weight loss at 50 mg/kg, po qd measured on day 21; conditions: in vivo
in vivo [35] = conditions: Sprague-Dawley, rat, po, 10 mg/kg
Cytochrome P450 1A2 = molecular target: T5, Cytochrome P450 1A2 (Homo sapiens, UniProt P05177); assay: Inhibition of CYP1A2 in human liver microsomes at 10 uM using phenacetin as substrate preincubated for 10 mins followed by NADPH addition by LC/MS analysis
T5 sequence (P05177 whole entry): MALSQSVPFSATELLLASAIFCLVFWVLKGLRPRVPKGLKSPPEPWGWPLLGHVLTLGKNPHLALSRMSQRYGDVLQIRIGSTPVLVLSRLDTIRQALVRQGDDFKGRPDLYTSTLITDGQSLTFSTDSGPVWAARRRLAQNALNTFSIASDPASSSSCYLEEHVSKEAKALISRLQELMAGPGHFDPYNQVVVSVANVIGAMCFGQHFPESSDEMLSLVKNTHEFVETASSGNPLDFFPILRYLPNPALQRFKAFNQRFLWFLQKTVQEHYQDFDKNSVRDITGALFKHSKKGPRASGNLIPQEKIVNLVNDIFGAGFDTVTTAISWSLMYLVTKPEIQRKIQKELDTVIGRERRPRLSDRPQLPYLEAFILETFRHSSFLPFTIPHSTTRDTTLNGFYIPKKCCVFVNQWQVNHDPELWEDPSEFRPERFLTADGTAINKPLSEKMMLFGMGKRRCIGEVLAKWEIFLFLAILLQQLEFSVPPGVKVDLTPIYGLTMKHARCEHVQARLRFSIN

[36] = rat, in vivo, iv, 2 mg/kg, 24 h; remark: listed apart in the source
[37] = Apparent permeability across basolateral side to apical side in dog MDCKII-MDR1 cells; conditions: MDCK-MDR1
Cytochrome P450 2C9 [38] = molecular target: T4, Cytochrome P450 2C9; assay: Time-dependent inhibition of CYP2C9 (unknown origin) at 2 ul pre-incubated for 30 mins in presence or absence of NADPH incubated for 10 mins by LC/MS analysis
[39] = Half life in overnight fasted Beagle dog at 20 mg/kg, po measured upto 24 hrs by LC/MS/MS analysis; conditions: in vivo
Cytochrome P450 2C8 [40] = molecular target: T2, Cytochrome P450 2C8; assay: Time-dependent inhibition of CYP2C8 (unknown origin) at 2 ul pre-incubated for 30 mins in presence or absence of NADPH incubated for 10 mins by LC/MS analysis
[41] = Toxicity in BALB/c nude mouse xenografted with human MIA PaCa-21 cells expressing KRAS G12C mutant assessed as animal death at 50 mg/kg, po qd measured on day 21; conditions: in vivo, 504 h
[42] = Cardiotoxicity in Patient-specific iPSC-derived cardiomyocytes assessed as decrease in action potential duration by patch clamp assay; format: toxicity, cell-based; conditions: human, cardiac muscle cell
[43] = Plasma protein binding in mouse at 2 uM preincubated for 1 hr by balanced dialysis based LC-MS/MS analysis
[44] = rat, in vivo, iv, 2 mg/kg, 24 h; remark: listed apart in the source

SMILES: Cc1nc(N[C@H](C)c2cccc(C(F)F)c2F)c2cc3c(cc2n1)OCC[C@H]1CN(CC(F)(F)F)CCN31
- Cmax [1]: 109 ng/mL
- AUC at 24 h (in vivo [2]): 19900 ng·h/mL
- MRT at 24 h [3]: 5.5 h
- Activity [4]: Toxic
- CLint scaled at 1 h, 1 µM (in vitro [5]): 396 mL/min/kg
- Tmax [6]: 2.33 h
- Cmax at 24 h (in vivo [7]): 2260 ng/mL
- CLint scaled at 1 h, 1 µM (in vitro [8]): 442 mL/min/kg
- AUC [9]: 563 ng·h/mL
- t1/2 [10]: 5.35 h
- fraction unbound at 1 h, 2 µM [11]: 0.001
- Papp A→B [12]: 0.26 ×10⁻⁶ cm/s
- IC50 (Cytochrome P450 2D6 [13]): 6.1 µM
- fraction unbound at 1 h, 2 µM [14]: 0.001
- IC50 (Cytochrome P450 2D6 [15]): 4.3 µM
- Activity [16]: Toxic
- IC50 (Cytochrome P450 2C8 [17]): 45.2 µM
- IC50 (Cytochrome P450 3A4 [18]): > 100 µM
- IC50 (Cytochrome P450 2C9 [19]): 15.4 µM
- CLint scaled at 1 h, 1 µM (in vitro [20]): 12 mL/min/kg
- k el at 24 h [21]: 4.75e-05 s⁻¹
- Cmax [22]: 232 ng/mL
- Tmax [23]: 1.17 h
- AUC [24]: 1322 ng·h/mL
- AUC [25]: 596 ng·h/mL
- t1/2 [26]: 2 h
- CLint scaled at 1 h, 1 µM (in vitro [27]): 436 mL/min/kg
- half-life at 24 h [28]: 4.13 h
- CLint scaled at 1 h, 1 µM (in vitro [29]): 516 mL/min/kg
- Activity [30]: Toxic
- fraction unbound at 1 h, 2 µM [31]: 0.002
- IC50 (Cytochrome P450 3A4 [32]): > 100 µM
- Tmax at 24 h (in vivo [33]): 0.833 h
- Activity [34]: Non-Toxic
- bioavailability at 24 h (in vivo [35]): 18.8%
- IC50 (Cytochrome P450 1A2): > 100 µM
- Tmax [36]: 4.8 min
- Papp B→A [37]: 0.78 ×10⁻⁶ cm/s
- IC50 (Cytochrome P450 2C9 [38]): 14.6 µM
- t1/2 [39]: 6.74 h
- IC50 (Cytochrome P450 2C8 [40]): 39.1 µM
- Activity [41]: Non-Toxic
- Activity [42]: Toxic
- fraction unbound at 1 h, 2 µM [43]: 0.001
- Cmax [44]: 518 ng/mL
